Measurements from patent US20220160812A1, “A PHARMACEUTICALLY ACTIVE SUBSTANCE” (Cytopharma GmbH, priority 2019, published 2022).

Tested on: BxPC-3 human pancreatic cancer cells
Assay: subG1 cell cycle FACS apoptosis assay, BxPC-3 cells
Type: cell-based
Conditions: BxPC-3, Protocol A, about 24 hours, FIG. 10
Protocol: To transfer adherent cells (A375 and BxPC-3 cells) after culture, cells are washed twice with PBS. To detach the cells, the enzyme biotase is used according to the manufacturer's instructions. For this purpose, after washing with PBS, the cells are mixed with biotase (5 ml of biotase solution per 75 cm^2 surface of the cell culture bottles) and incubated for 5 min at 37 degrees Celsius, and the biotase is separated by centrifugation. Cells cultivated in suspension (MEC-1 and lymphocytes) were transferred by dilution. The cells are suspended in culture medium and counted, each time 1.5×10^5 cells/cm^2 are seeded in 48-well plates and cultured for between 1.5 and 24 hours at 37 degrees Celsius, 5% CO2. Peptides are pre-diluted from stock solution with culture medium and 200 μl of peptide solution added so that final concentrations of 30 to 500 μM peptide are present in at most 1% (v/v) DMSO. As control solutions, culture medium without peptide (DMSO-containing) in culture medium or etoposide solution is added. After incubating the cells for several hours, the cell supernatant is transferred to a FACS tube for each batch and, after washing the cells with PBS, the wash solution is added. Then the cells are incubated with 200 μl of biotase solution for 10 min, 37° C., the cells with the biotase are also transferred to the FACS tube and the cells are collected by centrifugation for 5 min. The cell pellet is suspended in 500 μl of serum-free culture medium, then 1.5 ml of cold 80% ethanol (ethanol/PBS-80/20, v/v, stored at −20° C.) is added, the FACS tubes sealed and stored at −20 degrees Celsius for 15 to 18 h. Thereafter, the cells are centrifuged for 5 minutes at 120 g, suspended after removal of the supernatant in 2 ml PBS and incubated at 37 degrees Celsius for 30 minutes. After re-centrifugation, the cells are suspended in 0.5 ml DAPI solution and incubated for 15 min at 20 degrees Celsius in the dark. Thereafter, the cells are stored dark for a maximum of four hours in an ice bath, followed by the FACS analysis.
The adherent cells (A375 and BxPC-3 cells and MDA-MB-231, respectively) are seeded 24 hours before induction in 6-well plates in culture medium. For this, the cells are washed with PBS, then incubated with trypsin/EDTA solution at 37 degrees Celsius and suspended in culture medium. The 6-well plates are loaded with 1×10^5 cells/cm^2 in culture medium and the cells incubated for 24 hours until induction with the peptides in the incubator. For induction, the peptides are diluted in fresh culture medium. As control solutions, culture medium without peptide (DMSO-containing) in culture medium or etoposide solution is added. The cells are washed with PBS. Thereafter the peptide solution in culture medium is added to the cells. After incubation in the incubator (37° C., 5% CO2) between 1.5 and 24 hours, the cell supernatant is transferred to 15 ml centrifuge tubes, the cells are washed with 0.75 ml PBS and then with 0.5 ml versene solution. Both washings are combined with the cell supernatant. The cells are then added with 0.5 ml of trypsin/EDTA solution and incubated at about 37° C. for at most 10 minutes until the cells detached. The cell suspension is combined with cell supernatant and washings and centrifuged at about 130 g for about 10 minutes. After removing the supernatant, the cells are suspended in 400 μl of cell culture medium (without serum) and mixed with 1.2 ml of 80% ethanol/20% PBS (v/v) and incubated for 1 to 7 days at −20° C. For analysis, the cells are centrifuged at 130 g for 10 min, suspended in 2 ml PBS, and centrifuged again for 5 min. The cells are suspended in 700 μl PI buffer and incubated for 10 min at 37° C. in the dark. Subsequently, the cells are stored dark for a maximum of four hours in an ice bath, then the FACS analysis is performed. […]

Substance | apoptosis efficiency (subG1), comparison in words (50 μM) | apoptosis efficiency (subG1), comparison in words (200 μM) | apoptosis efficiency (subG1) in view of Peptide SEQ C1 (any concentration (50, 100, 200 μM)) | apoptosis efficiency (subG1), comparison in words (100 μM)
k-s-q-t-v-q-k-w-m-v-v-y-f-r-k [SEQID No 36] | slight improvement over peptides SEQID NO 27 and SEQID NO 37 | clear improvement over peptides SEQID NO 27 and SEQID NO 29 | at least fourfold | –
s-q-t-v-q-k-w-m-v-v-y-f-r-k [SEQID No 37] | – | clear improvement over peptides SEQID NO 27 and SEQID NO 29 | – | –
k-s-q-t-v-k-k-w-m-v-v-y-f-r-k [SEQID No 29] | slight improvement over peptides SEQID NO 27 and SEQID NO 37 | – | – | higher efficiency at 100 μM in view of Peptides SEQID NO 27, SEQID NO 37 and SEQID NO 36
